Source: patent US20240067693A1, “POLYPEPTIDES AND USES THEREOF” (MEDIMMUNE LIMITED, priority 2020, published 2024)
Numbered stars: 1 amine (or outer) side, 2 acyl side, 3 side chain; on linkers, the order of the positions; unused ones are H or OH. Bridge positions count the residues as written; N and C are the ends. Square brackets hold non-standard residues; d marks the D form. Side chains are listed from the residue outwards. Peptide text beside a SMILES is read from it. * marks the point of attachment. C18 diacid = O=C(O)CCCCCCCCCCCCCCCCC(=O)*; γGlu = O=C(O)[C@H](CCC(=O)[*:2])N[*:1]; Aib = CC(C)(N)C(=O)O

Experiments:
[1] = biological target: T1, human calcitonin receptor (hCTR) (Homo sapiens, UniProt P30988); assay: cAMP production in 1321N1 cells with stable recombinant expression of human calcitonin receptor (hCTR); format: cell-based; settings: cAMP, 1321N1 cells, assay buffer with 0.1% BSA; read-out: EC50 (pM) hCTR
T1 construct: expressed in transfected cells
T1 sequence (P30988 25-474): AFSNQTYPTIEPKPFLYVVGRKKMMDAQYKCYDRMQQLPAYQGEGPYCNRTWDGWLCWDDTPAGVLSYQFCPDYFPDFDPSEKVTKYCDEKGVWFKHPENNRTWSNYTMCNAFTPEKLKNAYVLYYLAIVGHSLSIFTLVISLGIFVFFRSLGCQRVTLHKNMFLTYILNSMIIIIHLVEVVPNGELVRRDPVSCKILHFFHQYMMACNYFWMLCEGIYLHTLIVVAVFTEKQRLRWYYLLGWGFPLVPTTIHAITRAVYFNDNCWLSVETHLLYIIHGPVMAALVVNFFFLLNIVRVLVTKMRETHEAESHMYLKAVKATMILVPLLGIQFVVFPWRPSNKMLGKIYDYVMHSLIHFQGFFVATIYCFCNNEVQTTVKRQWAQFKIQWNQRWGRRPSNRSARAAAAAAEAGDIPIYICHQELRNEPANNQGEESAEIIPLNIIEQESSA
In short: (§1)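 EC50 values come from 4-parameter logistic fits of HTRF cAMP signal, normalised to maximal calcitonin or amylin effect. Peptides were tested in duplicate for 30 min at RT in IBMX-containing (0.5 mM) BSA/HEPES buffer pH 7.4 on stable 1321N1 (human CTR, AMYR3) or HEK (rat CTR, AMYR3) lines.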

[2] = biological target: T2, human amylin receptor (calcitonin receptor co-expressed with receptor activity modifying protein, RAMP3) (hAMYR3) (Homo sapiens, UniProt O60896+P30988); assay: cAMP production in 1321N1 cells with stable recombinant expression of human amylin receptor (hAMYR3); format: cell-based; settings: for Ratio (selectivity hAMYR vs hCTR, ratio of EC50 values at the two receptors): EC50 hCTR / EC50 hAMYR3; for EC50: cAMP, 1321N1 cells, assay buffer with 0.1% BSA, read-out: EC50 (pM) hAMYR3
T2 construct: expressed in transfected cells
T2 sequence (P30988 25-474): T1 sequence (P30988 25-474)
T2 sequence (O60896 24-148 partner): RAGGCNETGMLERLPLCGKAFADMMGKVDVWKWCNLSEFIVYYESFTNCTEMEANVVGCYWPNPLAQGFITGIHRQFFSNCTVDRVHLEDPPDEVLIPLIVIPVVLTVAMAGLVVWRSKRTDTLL
In short: as §1

CC[C@H](C)[C@H](NC(=O)[C@@H]1CCCN1C(=O)CNC(=O)[C@H](Cc1ccccc1)NC(=O)[C@H](CC(N)=O)NC(=O)C(C)(C)NC(=O)[C@H](CO)NC(=O)[C@H](CO)NC(=O)[C@H](Cc1c[nH]cn1)NC(=O)[C@@H](NC(=O)[C@H](CC(C)C)NC(=O)[C@H](Cc1ccccc1)NC(=O)[C@H](CC(N)=O)NC(=O)[C@H](C)NC(=O)[C@H](CC(C)C)NC(=O)[C@H](CCCNC(=N)N)NC(=O)[C@H](CCC(N)=O)NC(=O)[C@@H](NC(=O)[C@H](C)NC(=O)[C@@H]1CSSC[C@H](NC(=O)[C@H](CCCCN)NC(=O)[C@@H](N)CCCCNC(=O)CC[C@H](NC(=O)CCCCCCCCCCCCCCCCC(=O)O)C(=O)O)C(=O)N[C@@H](CC(N)=O)C(=O)N[C@@H]([C@@H](C)O)C(=O)N[C@@H](C)C(=O)N[C@@H]([C@@H](C)O)C(=O)N1)[C@@H](C)O)C(C)C)C(=O)N[C@@H](CC(C)C)C(=O)N1CCC[C@H]1C(=O)N1CCC[C@H]1C(=O)N[C@H](C(=O)N[C@@H](CC(N)=O)C(=O)N[C@H](C(=O)NCC(=O)N[C@@H](CO)C(=O)N[C@@H](CCCNC(=N)N)C(=O)N[C@H](C(=O)N[C@@H](Cc1ccc(O)cc1)C(N)=O)[C@@H](C)O)C(C)C)[C@@H](C)O [Peptide 73, K(γE-C18diacid)K[CNTATC]ATQRLANFLVHSS(Aib)NFGPILPPTNVGSRTY-amide] (H-K([γGlu-C18 diacid])KCNTATCATQRLANFLVHSS[Aib]NFGPILPPTNVGSRTY-NH2; disulfide 3-8; N-terminus assumed)
EC50 [1]: 1820 pM
Ratio (selectivity hAMYR vs hCTR, ratio of EC50 values at the two receptors) [2]: 7
EC50 [2]: 256 pM

CC[C@H](C)[C@H](NC(=O)[C@@H]1CCCN1C(=O)CNC(=O)[C@H](Cc1ccccc1)NC(=O)[C@H](CC(N)=O)NC(=O)C(C)(C)NC(=O)[C@H](CO)NC(=O)[C@H](CO)NC(=O)[C@H](Cc1c[nH]cn1)NC(=O)[C@H](CCCNC(=N)N)NC(=O)[C@H](CC(C)C)NC(=O)[C@H](Cc1ccccc1)NC(=O)[C@H](CC(N)=O)NC(=O)[C@H](C)NC(=O)[C@H](CC(C)C)NC(=O)[C@H](CCCNC(=N)N)NC(=O)[C@H](CCC(N)=O)NC(=O)[C@@H](NC(=O)[C@H](C)NC(=O)[C@@H]1CSSC[C@H](NC(=O)[C@@H](N)CCCCNC(=O)CC[C@H](NC(=O)CC[C@H](NC(=O)CCCCCCCCCCCCCCCCC(=O)O)C(=O)O)C(=O)O)C(=O)N[C@@H](CC(N)=O)C(=O)N[C@@H]([C@@H](C)O)C(=O)N[C@@H](C)C(=O)N[C@@H]([C@@H](C)O)C(=O)N1)[C@@H](C)O)C(=O)N[C@@H](CC(C)C)C(=O)N1CCC[C@H]1C(=O)N1CCC[C@H]1C(=O)N[C@H](C(=O)N[C@@H](CC(N)=O)C(=O)N[C@H](C(=O)NCC(=O)N[C@@H](CO)C(=O)N[C@@H](CC(N)=O)C(=O)N[C@H](C(=O)N[C@@H](Cc1ccc(O)cc1)C(N)=O)[C@@H](C)O)C(C)C)[C@@H](C)O [Peptide 75, K(γE-γE-C18diacid)[CNTATC]ATQRLANFLRHSS(Aib)NFGPILPPTNVGSNTY-amide] (H-K([γGlu-γGlu-C18 diacid])CNTATCATQRLANFLRHSS[Aib]NFGPILPPTNVGSNTY-NH2; disulfide 2-7)
EC50 [1]: 16000 pM
Ratio (selectivity hAMYR vs hCTR, ratio of EC50 values at the two receptors) [2]: 99
EC50 [2]: 161 pM

CC[C@H](C)[C@H](NC(=O)[C@@H]1CCCN1C(=O)CNC(=O)[C@H](Cc1ccccc1)NC(=O)[C@H](CC(N)=O)NC(=O)C(C)(C)NC(=O)[C@H](CO)NC(=O)[C@H](CO)NC(=O)[C@H](Cc1c[nH]cn1)NC(=O)[C@@H](NC(=O)[C@H](CC(C)C)NC(=O)[C@H](Cc1ccccc1)NC(=O)[C@H](CC(N)=O)NC(=O)[C@H](C)NC(=O)[C@H](CC(C)C)NC(=O)[C@H](CCCNC(=N)N)NC(=O)[C@H](CCC(N)=O)NC(=O)[C@@H](NC(=O)[C@H](C)NC(=O)[C@@H]1CSSC[C@H](NC(=O)[C@@H](N)CCCCNC(=O)CC[C@H](NC(=O)CCCCCCCCCCCCCCCCC(=O)O)C(=O)O)C(=O)N[C@@H](CC(N)=O)C(=O)N[C@@H]([C@@H](C)O)C(=O)N[C@@H](C)C(=O)N[C@@H]([C@@H](C)O)C(=O)N1)[C@@H](C)O)C(C)C)C(=O)N[C@@H](CC(C)C)C(=O)N1CCC[C@H]1C(=O)N1CCC[C@H]1C(=O)N[C@H](C(=O)N[C@@H](CC(N)=O)C(=O)N[C@H](C(=O)NCC(=O)N[C@@H](CO)C(=O)N[C@@H](CC(N)=O)C(=O)N[C@H](C(=O)N[C@@H](Cc1ccc(O)cc1)C(N)=O)[C@@H](C)O)C(C)C)[C@@H](C)O [Peptide 56, K(γE-C18diacid)[CNTATC]ATQRLANFLVHSS(Aib)NFGPILPPTNVGSNTY-amide] (H-K([γGlu-C18 diacid])CNTATCATQRLANFLVHSS[Aib]NFGPILPPTNVGSNTY-NH2; disulfide 2-7; N-terminus assumed)
EC50 [1]: 493 pM
Ratio (selectivity hAMYR vs hCTR, ratio of EC50 values at the two receptors) [2]: 7
EC50 [2]: 70 pM

CC[C@H](C)[C@H](NC(=O)[C@@H]1CCCN1C(=O)CNC(=O)[C@H](Cc1ccccc1)NC(=O)[C@H](CC(N)=O)NC(=O)[C@H](CC(N)=O)NC(=O)[C@H](CO)NC(=O)[C@H](CO)NC(=O)[C@H](Cc1c[nH]cn1)NC(=O)C(C)(C)NC(=O)[C@H](CC(C)C)NC(=O)[C@H](Cc1ccccc1)NC(=O)[C@H](CC(N)=O)NC(=O)[C@H](C)NC(=O)[C@H](CC(C)C)NC(=O)[C@H](CCCNC(=N)N)NC(=O)[C@H](CCC(N)=O)NC(=O)[C@@H](NC(=O)[C@H](C)NC(=O)[C@@H]1CSSC[C@H](NC(=O)[C@H](CCCCN)NC(=O)[C@@H](N)CCCCNC(=O)CC[C@H](NC(=O)CCCCCCCCCCCCCCCCC(=O)O)C(=O)O)C(=O)N[C@@H](CC(N)=O)C(=O)N[C@@H]([C@@H](C)O)C(=O)N[C@@H](C)C(=O)N[C@@H]([C@@H](C)O)C(=O)N1)[C@@H](C)O)C(=O)N[C@@H](CC(C)C)C(=O)N1CCC[C@H]1C(=O)N1CCC[C@H]1C(=O)N[C@H](C(=O)N[C@@H](CC(N)=O)C(=O)N[C@H](C(=O)NCC(=O)N[C@@H](CO)C(=O)NC(C)(C)C(=O)N[C@H](C(=O)N[C@@H](Cc1ccc(O)cc1)C(N)=O)[C@@H](C)O)C(C)C)[C@@H](C)O [Peptide 102, K(γE-C18diacid)K[CNTATC]ATQRLANFL(Aib)HSSNNFGPILPPTNVGS(Aib)TY-amide] (H-K([γGlu-C18 diacid])KCNTATCATQRLANFL[Aib]HSSNNFGPILPPTNVGS[Aib]TY-NH2; disulfide 3-8)
EC50 [1]: 1630 pM
Ratio (selectivity hAMYR vs hCTR, ratio of EC50 values at the two receptors) [2]: 3
EC50 [2]: 479 pM

CC[C@H](C)[C@H](NC(=O)[C@@H]1CCCN1C(=O)CNC(=O)[C@H](Cc1ccccc1)NC(=O)[C@H](CC(N)=O)NC(=O)[C@H](CC(N)=O)NC(=O)[C@H](CO)NC(=O)[C@H](CO)NC(=O)[C@H](Cc1c[nH]cn1)NC(=O)C(C)(C)NC(=O)[C@H](CC(C)C)NC(=O)[C@H](Cc1ccccc1)NC(=O)[C@H](CC(N)=O)NC(=O)[C@H](C)NC(=O)[C@H](CC(C)C)NC(=O)[C@H](CCCNC(=N)N)NC(=O)[C@H](CCC(N)=O)NC(=O)[C@@H](NC(=O)[C@H](C)NC(=O)[C@@H]1CSSC[C@H](NC(=O)[C@H](CCCCN)NC(=O)[C@@H](N)CCCCNC(=O)CC[C@H](NC(=O)CCCCCCCCCCCCCCCCC(=O)O)C(=O)O)C(=O)N[C@@H](CC(N)=O)C(=O)N[C@@H]([C@@H](C)O)C(=O)N[C@@H](C)C(=O)N[C@@H]([C@@H](C)O)C(=O)N1)[C@@H](C)O)C(=O)N[C@@H](CC(C)C)C(=O)N1CCC[C@H]1C(=O)NC(C)(C)C(=O)N[C@H](C(=O)N[C@@H](CC(N)=O)C(=O)N[C@H](C(=O)NCC(=O)N[C@@H](CO)C(=O)N[C@@H](CC(N)=O)C(=O)N[C@H](C(=O)N[C@@H](Cc1ccc(O)cc1)C(N)=O)[C@@H](C)O)C(C)C)[C@@H](C)O [Peptide 97, K(γE-C18diacid)K[CNTATC]ATQRLANFL(Aib)HSSNNFGPILP(Aib)TNVGSNTY-amide] (H-K([γGlu-C18 diacid])KCNTATCATQRLANFL[Aib]HSSNNFGPILP[Aib]TNVGSNTY-NH2; disulfide 3-8; N-terminus assumed)
EC50 [1]: 944 pM
Ratio (selectivity hAMYR vs hCTR, ratio of EC50 values at the two receptors) [2]: 1
EC50 [2]: 684 pM
